Reference: patent US9096601B2 (CSPC Zhongqi Pharmaceutical Technology (Shijiazhuang) Co., …, priority 2010, dated 2015)
Like-named read-outs stand apart in the source and are kept apart here.

Experiments:
ALK = ALK (Homo sapiens (Human), UniProt Q9UM73); experiment: Kinase inhibitory activity, isotopic labeling (γ-33P-ATP); assay type: biochemical; details: compound at 10 μM
Description: (§1) The object of this assay was to test the inventive compounds for the kinase inhibitory activity in vitro. In this assay, an isotopic labeling method was used to label the γ phosphate group on ATP. EGFR (including wild type, L858R mutant type and L858R/T790M double mutant type), VEGFR2, ALK, BTK, c-KIT, c-SRC, MET, PDGFRα and FLT3 kinases were tested in vitro for the activity inhibition. Staurosporine was used as a reference molecule (or referred to as a positive control). […] The IC50 value can be obtained by the calculation of the inhibitory rates at a series of different concentrations of the tested compounds.
(§2) To a reaction tube were successively added the buffer solution (8 mM MOPS, pH 7.0, 0.2 mM EDTA, 10 mM MnCl2), the kinase to be tested (5-10 mU) (EGFR/ALK/BTK/c-KIT/c-SRC/MET/PDGFRα/VEGFR2), the substrate for the kinase to be tested (a reference material), 10 mM of the solution of magnesium acetate and γ-^33 P-ATP, and different concentrations of the tested compounds. […] The reaction was terminated with […] of the 3% phosphate buffer solution. 10 μL of the reaction liquid was titrated on the Filtermat A membrane. The membrane was washed with 75 mM of the phosphate solution thrice (5 minutes each time), and then with methanol once, and finally dried. The membrane was subjected to a scintillation counting. The value of the scintillation counting reflected the phosphorylation level of the substrate and therefore could characterize the inhibition of the kinase activity.

BTK = BTK (Homo sapiens (Human), UniProt Q06187); experiment: as above; assay type: biochemical; details: compound at 10 μM
Description: as §1, §2

FLT3 = FLT3 (Homo sapiens (Human), UniProt P36888); experiment: as above; assay type: biochemical; details: compound at 10 μM
Description: as §1, §2

MET = MET (Homo sapiens (Human), UniProt P08581); experiment: as above; assay type: biochemical; details: compound at 10 μM
Description: as §1, §2

PDGFRα = PDGFRα (Homo sapiens (Human), UniProt P16234); experiment: as above; assay type: biochemical; details: compound at 10 μM
Description: as §1, §2

VEGFR2 = VEGFR2 (Homo sapiens (Human), UniProt P35968); experiment: as above; assay type: biochemical
Description: as §1, §2

c-KIT = c-KIT (Homo sapiens (Human), UniProt P10721); experiment: as above; assay type: biochemical; details: compound at 10 μM
Description: as §1, §2

c-SRC = c-SRC (Homo sapiens (Human), UniProt P12931); experiment: as above; assay type: biochemical; details: compound at 10 μM
Description: as §1, §2

[1] = tested on: acute myelogenous leukemia cell strain MV4-11; experiment: In-vitro tumor cell proliferation inhibition, MTT; assay type: cell-based, human
Excerpt: (§3) The object of this assay was to test the inventive compounds for the inhibitory activity of in-vitro tumor cell proliferation. The MTT (tetreamethyl-azo-zole-salt) colorimetric method was used in this assay.
(§4) Human non-small cell lung carcinoma cell strains HCC827, PC-9, H1975 (EGFR L858R/T790M mutation) and H292 (EGFR WT), and other tumor type cell strains, including human acute myelogenous leukemia cell strain MV4-11, human chronic granulocytic leukemia cell strain K562, human squamous cell carcinoma cell strain A431, human breast carcinoma cell strains MDA-MB-468 and BT 474, human colon cancer cell strains SW480, HCT116 and SW620, human liver cancer cell strain Hep G2, human gastric cancer cell strain MK-45, and human malignant melanoma cell strain A375 used in this assay were all purchased from ATCC company, USA and kept in the laboratory. All of the above-mentioned non-small cell lung carcinoma cell strains and the breast carcinoma cell strain BT 474 were cultured with a RPMI-1640 complete culture medium containing 10% fetal bovine serum, 100 U/ml penicillin and 100 μg/ml streptomycin under 5% CO2 and at 37° C. The other cell strains were cultured with a DMEM complete culture medium containing 10% fetal bovine serum (having a MV4-11 cell content of 20%), 100 U/ml penicillin and 100 μg/ml streptomycin under 5% CO2 and 37° C.
(§5) A cell suspension having a cell concentration of 1-2×10^4 cells/ml was treated with a complete cell culture solution to adjust the cell concentration, wherein the cell concentrations for HCC827 and MV4-11 were adjusted to 6×10^4 cells/ml and 1×10^5 cells/ml respectively. The cell suspension was inoculated in a 96-well plate with 200 μl cell suspension/well and cultured overnight. Next day, the supernatant was drawn off and discarded. Then, the cells were treated with the tested compounds in a gradient concentration respectively. In the meanwhile, a negative control group free of the drug substance and an isovolumetric solvent control group (having a DMSO concentration of 1%) were used. The triplicate wells were used for each of dose groups. The culturing was conducted at 37° C. under 5% CO2. After 72 hours, […] having a concentration of 5 mg/ml was added to each of wells. The culturing was further conducted for 2-4 hours. The supernatant was discarded. Then […] was added to each of wells. The contents in the well were mixed homogenously by oscillation for 15 minutes. The absorbance (A) value was measured with a microplate reader at λ=570 nm (the A value is in the direct proportion to the number of living cells) and averaged. The relative cell proliferation inhibitory rate is (A570 control-group−A570 dose-group)/A570 control-group×100%. The assay was repeated for at least three times. The data was expressed as number average. The statistical data were analyzed using t-test. P<0.05 was considered significant. The cell proliferation inhibition of the following compounds was expressed as IC50 or inhibitory rate.

[2] = tested on: breast carcinoma cell strain BT474; experiment: In-vitro tumor cell proliferation inhibition, MTT; assay type: cell-based, human
Excerpt: as §3, §4, §5

[3] = tested on: breast carcinoma cell strain MDA-MB-468; experiment: In-vitro tumor cell proliferation inhibition, MTT; assay type: cell-based, human
Excerpt: as §3, §4, §5

[4] = tested on: chronic granulocytic leukemia cell strain K562; experiment: In-vitro tumor cell proliferation inhibition, MTT; assay type: cell-based, human
Excerpt: as §3, §4, §5

[5] = tested on: colon cancer cell strain HCT116; experiment: In-vitro tumor cell proliferation inhibition, MTT; assay type: cell-based, human
Excerpt: as §3, §4, §5

[6] = tested on: colon cancer cell strain SW480; experiment: In-vitro tumor cell proliferation inhibition, MTT; assay type: cell-based, human
Excerpt: as §3, §4, §5

[7] = tested on: colon cancer cell strain SW620; experiment: In-vitro tumor cell proliferation inhibition, MTT; assay type: cell-based, human
Excerpt: as §3, §4, §5

[8] = tested on: gastric cancer cell strain MK-45; experiment: In-vitro tumor cell proliferation inhibition, MTT; assay type: cell-based, human; details: 72 hours, read-out: MK45 (IC50)
Excerpt: as §3, §4, §5

[9] = tested on: liver cancer cell strain Hep G2; experiment: In-vitro tumor cell proliferation inhibition, MTT; assay type: cell-based, human
Excerpt: as §3, §4, §5

[10] = tested on: malignant melanoma cell strain A375; experiment: In-vitro tumor cell proliferation inhibition, MTT; assay type: cell-based, human
Excerpt: as §3, §4, §5

[11] = tested on: squamous cell carcinoma cell strain A431; experiment: In-vitro tumor cell proliferation inhibition, MTT; assay type: cell-based, human
Excerpt: as §3, §4, §5

[12] = tested on: non-small cell lung carcinoma cell strain H1975 (EGFR L858R/T790M mutation); experiment: In-vitro tumor cell proliferation inhibition, MTT; assay type: cell-based, human; details: 72 hours
Description: as §3
(§6) All of the above-mentioned non-small cell lung carcinoma cell strains and the breast carcinoma cell strain BT 474 were cultured with a RPMI-1640 complete culture medium containing 10% fetal bovine serum, 100 U/ml penicillin and 100 μg/ml streptomycin under 5% CO2 and at 37° C. The other cell strains were cultured with a DMEM complete culture medium containing 10% fetal bovine serum (having a MV4-11 cell content of 20%), 100 U/ml penicillin and 100 μg/ml streptomycin under 5% CO2 and 37° C.
as §5

[13] = tested on: non-small cell lung carcinoma cell strain H292 (EGFR WT); experiment: In-vitro tumor cell proliferation inhibition, MTT; assay type: cell-based, human; details: 72 hours
Description: as §3, §6, §5

[14] = tested on: non-small cell lung carcinoma cell strain HCC827; experiment: In-vitro tumor cell proliferation inhibition, MTT; assay type: cell-based, human; details: 72 hours
Description: as §3, §6, §5

[15] = tested on: non-small cell lung carcinoma cell strain PC-9 (EGFR delE746-A750 deletion mutation); experiment: In-vitro tumor cell proliferation inhibition, MTT; assay type: cell-based, human; details: 72 hours
Description: as §3, §6, §5

[16] = 72 hours, read-out: HEPG2 (IC50)

ALK, sequence (Q9UM73 19-1620): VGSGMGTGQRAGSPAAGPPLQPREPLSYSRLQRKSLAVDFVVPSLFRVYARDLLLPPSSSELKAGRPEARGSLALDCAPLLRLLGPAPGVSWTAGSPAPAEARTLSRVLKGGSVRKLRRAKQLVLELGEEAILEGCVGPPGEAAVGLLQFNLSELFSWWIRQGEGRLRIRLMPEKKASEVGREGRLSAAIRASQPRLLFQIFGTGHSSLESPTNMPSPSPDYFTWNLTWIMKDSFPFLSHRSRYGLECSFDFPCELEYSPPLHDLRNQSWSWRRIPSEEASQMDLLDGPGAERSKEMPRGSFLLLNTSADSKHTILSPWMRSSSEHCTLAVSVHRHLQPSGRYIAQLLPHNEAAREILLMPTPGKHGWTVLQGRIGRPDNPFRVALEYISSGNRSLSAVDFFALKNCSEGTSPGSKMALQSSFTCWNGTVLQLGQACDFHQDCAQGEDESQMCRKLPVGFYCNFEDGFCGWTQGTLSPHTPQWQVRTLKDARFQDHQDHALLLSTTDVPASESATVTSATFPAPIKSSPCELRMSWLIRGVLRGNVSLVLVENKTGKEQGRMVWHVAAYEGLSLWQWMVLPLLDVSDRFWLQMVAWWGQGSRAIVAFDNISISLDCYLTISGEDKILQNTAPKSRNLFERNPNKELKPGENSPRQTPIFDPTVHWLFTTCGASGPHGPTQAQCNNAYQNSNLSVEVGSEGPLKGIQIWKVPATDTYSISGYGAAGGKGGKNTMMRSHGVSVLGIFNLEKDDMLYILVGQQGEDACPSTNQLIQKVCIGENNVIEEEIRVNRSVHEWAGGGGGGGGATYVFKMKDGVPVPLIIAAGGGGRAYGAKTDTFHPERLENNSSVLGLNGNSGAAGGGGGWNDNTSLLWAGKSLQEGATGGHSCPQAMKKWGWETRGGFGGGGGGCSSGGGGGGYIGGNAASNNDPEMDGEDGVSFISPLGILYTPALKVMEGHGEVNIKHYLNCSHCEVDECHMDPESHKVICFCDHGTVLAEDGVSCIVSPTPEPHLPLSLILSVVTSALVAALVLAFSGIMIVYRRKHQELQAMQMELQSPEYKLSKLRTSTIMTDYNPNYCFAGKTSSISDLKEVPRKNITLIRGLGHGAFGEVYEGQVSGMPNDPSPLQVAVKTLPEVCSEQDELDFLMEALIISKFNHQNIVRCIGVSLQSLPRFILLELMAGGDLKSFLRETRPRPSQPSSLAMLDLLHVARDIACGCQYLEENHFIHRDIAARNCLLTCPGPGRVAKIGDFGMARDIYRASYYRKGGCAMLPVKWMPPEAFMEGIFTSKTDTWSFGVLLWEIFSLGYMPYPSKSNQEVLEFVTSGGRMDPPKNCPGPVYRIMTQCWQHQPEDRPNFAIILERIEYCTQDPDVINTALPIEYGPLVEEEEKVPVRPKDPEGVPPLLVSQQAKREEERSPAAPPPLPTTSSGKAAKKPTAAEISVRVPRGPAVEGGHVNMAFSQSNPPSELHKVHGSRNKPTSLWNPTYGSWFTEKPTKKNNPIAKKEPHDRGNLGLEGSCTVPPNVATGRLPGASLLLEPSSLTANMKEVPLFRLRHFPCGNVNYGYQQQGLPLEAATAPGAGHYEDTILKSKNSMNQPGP
MET, sequence (P08581 25-1390): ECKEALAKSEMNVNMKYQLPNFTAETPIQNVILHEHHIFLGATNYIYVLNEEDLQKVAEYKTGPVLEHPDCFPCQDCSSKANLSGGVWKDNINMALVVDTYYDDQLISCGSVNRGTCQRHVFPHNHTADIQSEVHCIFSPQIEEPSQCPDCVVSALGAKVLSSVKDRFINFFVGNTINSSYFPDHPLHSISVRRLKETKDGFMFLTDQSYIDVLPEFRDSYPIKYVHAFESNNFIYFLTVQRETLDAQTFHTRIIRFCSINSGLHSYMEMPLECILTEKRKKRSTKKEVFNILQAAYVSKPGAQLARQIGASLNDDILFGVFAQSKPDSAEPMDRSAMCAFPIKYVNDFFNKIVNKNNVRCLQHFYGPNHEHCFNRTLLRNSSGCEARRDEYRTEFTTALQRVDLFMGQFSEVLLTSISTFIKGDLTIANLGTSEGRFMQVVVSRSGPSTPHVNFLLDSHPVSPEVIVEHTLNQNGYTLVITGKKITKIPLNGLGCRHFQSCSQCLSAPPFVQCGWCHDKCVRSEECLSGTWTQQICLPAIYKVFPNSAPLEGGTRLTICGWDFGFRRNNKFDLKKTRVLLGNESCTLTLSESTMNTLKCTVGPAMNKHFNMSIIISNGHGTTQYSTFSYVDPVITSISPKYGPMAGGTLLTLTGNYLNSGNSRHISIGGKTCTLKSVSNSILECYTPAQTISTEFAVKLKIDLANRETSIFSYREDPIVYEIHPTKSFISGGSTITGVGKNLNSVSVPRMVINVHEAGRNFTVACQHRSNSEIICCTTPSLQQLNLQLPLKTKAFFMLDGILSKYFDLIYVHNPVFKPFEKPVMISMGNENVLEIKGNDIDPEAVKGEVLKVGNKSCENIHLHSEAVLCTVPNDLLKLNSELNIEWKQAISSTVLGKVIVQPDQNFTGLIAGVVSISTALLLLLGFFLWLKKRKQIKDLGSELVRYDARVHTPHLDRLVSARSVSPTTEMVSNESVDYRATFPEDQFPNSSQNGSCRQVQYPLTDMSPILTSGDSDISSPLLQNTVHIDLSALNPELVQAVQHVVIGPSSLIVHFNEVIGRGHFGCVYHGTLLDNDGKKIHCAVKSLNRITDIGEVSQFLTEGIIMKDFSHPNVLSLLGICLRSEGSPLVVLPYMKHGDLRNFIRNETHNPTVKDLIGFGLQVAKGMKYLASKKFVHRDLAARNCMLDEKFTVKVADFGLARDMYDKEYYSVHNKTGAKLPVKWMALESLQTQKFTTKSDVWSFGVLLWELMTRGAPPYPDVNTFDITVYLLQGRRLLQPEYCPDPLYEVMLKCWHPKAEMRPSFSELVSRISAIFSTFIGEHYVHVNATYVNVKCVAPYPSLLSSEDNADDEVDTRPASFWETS
c-KIT, sequence (P10721 26-976): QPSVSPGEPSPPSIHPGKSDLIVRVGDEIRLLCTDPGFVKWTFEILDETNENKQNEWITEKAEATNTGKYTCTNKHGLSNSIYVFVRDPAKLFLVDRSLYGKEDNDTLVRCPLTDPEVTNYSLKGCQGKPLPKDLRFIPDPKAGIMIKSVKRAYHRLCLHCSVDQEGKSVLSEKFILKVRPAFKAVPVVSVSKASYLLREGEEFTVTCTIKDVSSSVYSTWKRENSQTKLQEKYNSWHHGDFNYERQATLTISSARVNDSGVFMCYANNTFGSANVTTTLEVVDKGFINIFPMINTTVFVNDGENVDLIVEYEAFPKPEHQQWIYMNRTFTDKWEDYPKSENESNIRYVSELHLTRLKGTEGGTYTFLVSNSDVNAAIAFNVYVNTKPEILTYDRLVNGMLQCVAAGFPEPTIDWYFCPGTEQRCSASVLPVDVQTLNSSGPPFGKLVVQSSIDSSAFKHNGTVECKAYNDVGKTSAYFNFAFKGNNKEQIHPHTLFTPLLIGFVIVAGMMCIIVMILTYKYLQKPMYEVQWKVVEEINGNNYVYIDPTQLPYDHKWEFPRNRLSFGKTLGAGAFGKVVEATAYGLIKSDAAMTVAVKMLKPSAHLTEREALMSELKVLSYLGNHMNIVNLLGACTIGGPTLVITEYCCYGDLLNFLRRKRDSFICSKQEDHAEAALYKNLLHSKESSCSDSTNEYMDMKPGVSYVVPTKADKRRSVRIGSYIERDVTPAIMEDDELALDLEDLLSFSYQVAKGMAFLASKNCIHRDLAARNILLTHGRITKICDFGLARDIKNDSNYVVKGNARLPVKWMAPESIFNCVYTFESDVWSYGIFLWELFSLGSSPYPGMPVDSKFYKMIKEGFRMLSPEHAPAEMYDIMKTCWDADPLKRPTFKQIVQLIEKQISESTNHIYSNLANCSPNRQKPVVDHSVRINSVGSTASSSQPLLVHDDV
c-SRC, sequence (P12931 whole entry, looked up): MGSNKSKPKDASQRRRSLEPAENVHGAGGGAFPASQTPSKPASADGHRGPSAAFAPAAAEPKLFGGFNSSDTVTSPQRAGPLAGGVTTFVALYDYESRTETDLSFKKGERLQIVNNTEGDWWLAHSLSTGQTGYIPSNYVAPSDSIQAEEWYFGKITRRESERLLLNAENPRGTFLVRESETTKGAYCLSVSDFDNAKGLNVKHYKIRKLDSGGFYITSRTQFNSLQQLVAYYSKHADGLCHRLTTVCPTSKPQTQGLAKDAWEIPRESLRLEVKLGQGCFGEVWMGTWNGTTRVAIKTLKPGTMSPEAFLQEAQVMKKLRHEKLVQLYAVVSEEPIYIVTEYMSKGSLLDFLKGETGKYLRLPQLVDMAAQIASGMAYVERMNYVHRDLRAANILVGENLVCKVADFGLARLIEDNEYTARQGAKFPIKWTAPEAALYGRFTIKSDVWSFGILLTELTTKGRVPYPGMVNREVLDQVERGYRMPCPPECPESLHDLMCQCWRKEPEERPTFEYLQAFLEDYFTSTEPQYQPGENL
BTK, sequence (Q06187 whole entry): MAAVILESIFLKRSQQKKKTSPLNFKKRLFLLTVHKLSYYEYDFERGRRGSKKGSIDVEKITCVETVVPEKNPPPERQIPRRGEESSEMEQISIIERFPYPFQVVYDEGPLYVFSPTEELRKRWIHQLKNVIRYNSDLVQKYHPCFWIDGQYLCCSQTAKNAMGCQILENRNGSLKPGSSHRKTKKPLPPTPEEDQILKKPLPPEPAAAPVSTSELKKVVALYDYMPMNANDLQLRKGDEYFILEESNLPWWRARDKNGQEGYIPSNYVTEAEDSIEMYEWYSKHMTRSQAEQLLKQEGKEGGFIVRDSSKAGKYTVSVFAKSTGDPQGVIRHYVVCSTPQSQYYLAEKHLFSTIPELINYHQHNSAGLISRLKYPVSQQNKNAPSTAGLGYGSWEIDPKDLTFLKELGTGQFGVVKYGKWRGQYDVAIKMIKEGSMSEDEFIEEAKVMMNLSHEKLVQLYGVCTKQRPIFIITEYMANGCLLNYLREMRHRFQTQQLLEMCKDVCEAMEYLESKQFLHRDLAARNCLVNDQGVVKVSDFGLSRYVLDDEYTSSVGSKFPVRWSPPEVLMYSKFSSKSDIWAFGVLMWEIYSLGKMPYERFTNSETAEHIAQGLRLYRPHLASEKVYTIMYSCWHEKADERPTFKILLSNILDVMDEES

Structure (SMILES)	The kinase activity inhibitory rate (%) by the tested compounds at 10 μM ALK (ALK) [%]	The kinase activity inhibitory rate (%) by the tested compounds at 10 μM BTK (BTK) [%]	The kinase activity inhibitory rate (%) by the tested compounds at 10 μM FLT3 (FLT3) [%]	The kinase activity inhibitory rate (%) by the tested compounds at 10 μM MET (MET) [%]	The kinase activity inhibitory rate (%) by the tested compounds at 10 μM PDGFRα (PDGFRα) [%]	IC50 [12] [nM]	IC50 [13] [nM]	IC50 [14] [nM]	IC50 [15] [nM]	IC50 ([1]; 72 hours) [nM]	IC50 ([2]; 72 hours) [nM]	IC50 ([3]; 72 hours) [µM]	IC50 ([4]; 72 hours) [nM]	IC50 ([5]; 72 hours) [µM]	IC50 ([6]; 72 hours) [µM]	IC50 ([7]; 72 hours) [nM]	IC50 [8] [nM]	IC50 [9, 16] [µM]	IC50 ([10]; 72 hours) [nM]	IC50 ([11]; 72 hours) [µM]	also measured
CC(C)n1c(Nc2ccc(F)c(Cl)c2)nc2cnc(Nc3ccc(C(=O)NN4CCN(C)CC4)cc3F)nc21 [Compound 8-5, 3-fluoro-4-(9-isopropyl-8-(3-chloro-4-fluorophenylamino)-9H-purin-2-ylamino)-N-(4-methylpiperazin-1-yl)benzamide]	–	–	–	–	–	–	–	–	–	–	–	–	–	–	–	–	–	–	–	–	inhibition at 10 µM (ALK; read-out: The kinase activity inhibitory rate (%) by the tested compounds at 10 μM ALK): 54%; inhibition at 10 µM (BTK; read-out: The kinase activity inhibitory rate (%) by the tested compounds at 10 μM BTK): 78%; inhibition at 10 µM (FLT3; read-out: The kinase activity inhibitory rate (%) by the tested compounds at 10 μM FLT3): 35%; inhibition at 10 µM (MET; read-out: The kinase activity inhibitory rate (%) by the tested compounds at 10 μM MET): 64%; inhibition at 10 µM (PDGFRα; read-out: The kinase activity inhibitory rate (%) by the tested compounds at 10 μM PDGFRα): 19%; IC50 (VEGFR2): > 1000 nM; inhibition at 10 µM (c-KIT; read-out: The kinase activity inhibitory rate (%) by the tested compounds at 10 μM c-KIT): 54%; inhibition at 10 µM (c-SRC; read-out: The kinase activity inhibitory rate (%) by the tested compounds at 10 μM c-SRC): 32%; IC50 ([1]; Homo sapiens, MV4-11, 72 hours): 1770 nM; IC50 ([2]; Homo sapiens, BT-474, 72 hours): 1860 nM; IC50 ([3]; Homo sapiens, MDA-MB-468, 72 hours): 6.13 µM; IC50 ([4]; Homo sapiens, K562, 72 hours): 3730 nM; IC50 ([5]; Homo sapiens, HCT-116, 72 hours): 7.81 µM; IC50 ([6]; Homo sapiens, SW480, 72 hours): > 10 µM; IC50 ([7]; Homo sapiens, SW-620, 72 hours): 5570 nM; IC50 ([8]; Homo sapiens): > 1000 nM; IC50 ([9]; Homo sapiens, HepG2, 72 hours): > 10 µM; IC50 ([10]; Homo sapiens, A-375, 72 hours): > 1000 nM; IC50 ([11]; Homo sapiens, A-431, 72 hours): 9.29 µM
CC(C)n1c(Nc2ccc(OCc3cccc(F)c3)c(Cl)c2)nc2cnc(Nc3ccc(N4CCN(C)CC4)cc3)nc21 [Compounds 8-19]	90	71	43	97	34	7320	316	912	459	4780	4990	9.98	2790	> 1	> 10	1990	1010	5.42	1660	9.32	IC50 (VEGFR2; ATP 90 μM (Km)): > 1000 nM; The kinase activity inhibitory rate (%) by the tested compounds at 10 μM c-KIT (c-KIT): 12%; The kinase activity inhibitory rate (%) by the tested compounds at 10 μM c-SRC (c-SRC): 97%
CN1CCN(c2ccc(Nc3ncc4nc(Nc5ccccc5)n(C5CCCC5)c4n3)cc2)CC1 [Compounds 8-26]	71	99	86	86	95	369	10.7	1.1	0.2	93	107	0.299	120	0.239	3.44	282	> 1000	6.25	378	1.05	IC50 (VEGFR2; ATP 90 μM (Km)): 7 nM; The kinase activity inhibitory rate (%) by the tested compounds at 10 μM c-KIT (c-KIT): 94%; The kinase activity inhibitory rate (%) by the tested compounds at 10 μM c-SRC (c-SRC): 99%
CCN1CCN(Cc2ccc(Nc3ncc4nc(Nc5ccccc5)n(C5CCCC5)c4n3)cc2)CC1 [Compounds 8-59]	–	–	–	–	–	248	3.3	0.2	2.1	99.8	1100	6.84	111	5.72	4.75	1330	808	> 10	1200	0.497	–
